The source made the active and inactive calls.
What was measured:
[1] = biological target: Lytic switch protein BZLF1 (Epstein-Barr virus (strain B95-8) (HHV-4) (Human herpesvirus 4), UniProt P03206); assay: EBV ZTA inhibitors, dose response, counter-screen for EBNA-1 inhibitor project, biochemical, fluorescence polarization, Epstein-Barr virus, 1536-well (AID 2377); design: species or system human gammaherpesvirus 4;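 further: fluorescence polarization of Cy5-labelled ZRE DNA probe bound by purified Zta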
[2] = biological target: Epstein-Barr nuclear antigen 1 (Epstein-Barr virus (strain B95-8) (HHV-4) (Human herpesvirus 4), UniProt P03211); assay: EBNA-1 inhibitors, dose response, biochemical, fluorescence polarization, 1536-well (AID 2381); design: species or system human gammaherpesvirus 4;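 further: fluorescence polarization of a Cy5 DNA probe bound by EBNA-1 protein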
[3] = biological target: T1, E3 ubiquitin-protein ligase XIAP (Homo sapiens, UniProt P98170); assay: XIAP antagonists, biochemical, IAP family, fluorescence polarization (AID 1018); type: functional
T1 sequence (P98170 whole entry): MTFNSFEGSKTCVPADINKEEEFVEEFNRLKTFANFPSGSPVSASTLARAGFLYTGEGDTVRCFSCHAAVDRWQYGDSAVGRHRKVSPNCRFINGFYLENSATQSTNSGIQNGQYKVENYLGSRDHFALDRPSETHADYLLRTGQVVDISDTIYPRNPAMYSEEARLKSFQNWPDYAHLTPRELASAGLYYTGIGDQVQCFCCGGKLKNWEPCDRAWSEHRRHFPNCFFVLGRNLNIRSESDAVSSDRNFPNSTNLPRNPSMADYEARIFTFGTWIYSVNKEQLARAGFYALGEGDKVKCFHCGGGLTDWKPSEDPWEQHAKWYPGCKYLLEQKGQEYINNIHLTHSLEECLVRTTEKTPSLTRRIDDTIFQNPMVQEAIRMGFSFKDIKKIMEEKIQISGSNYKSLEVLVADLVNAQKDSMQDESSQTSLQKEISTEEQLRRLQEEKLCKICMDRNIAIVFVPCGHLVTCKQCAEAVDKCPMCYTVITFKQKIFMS

[4] = biological target: T1, E3 ubiquitin-protein ligase XIAP; assay: Counter Screen using XIAP-Bir3 for Chemical Antagonists of Bir1/2 domains of IAP-family anti-apoptotic proteins. [Related pubchem assays (depositor defined):AID1018, AID1449, AID1514, AID1638, AID1749, AID1750, AID488957, AID488963]
[5] = biological target: Neuropeptide Y receptor type 2 (Homo sapiens, UniProt P49146); type: functional, cell-based;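 further: HEK293 cells expressing the receptor and a CNG channel; stimulus was NPY near EC95 followed by isoproterenol to raise cAMP; antagonist potency measured as restoring cAMP signal that NPY suppresses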
[6] = biological target: T2, Kappa-type opioid receptor (Homo sapiens, UniProt P41145); type: functional
T2 sequence (P41145 whole entry): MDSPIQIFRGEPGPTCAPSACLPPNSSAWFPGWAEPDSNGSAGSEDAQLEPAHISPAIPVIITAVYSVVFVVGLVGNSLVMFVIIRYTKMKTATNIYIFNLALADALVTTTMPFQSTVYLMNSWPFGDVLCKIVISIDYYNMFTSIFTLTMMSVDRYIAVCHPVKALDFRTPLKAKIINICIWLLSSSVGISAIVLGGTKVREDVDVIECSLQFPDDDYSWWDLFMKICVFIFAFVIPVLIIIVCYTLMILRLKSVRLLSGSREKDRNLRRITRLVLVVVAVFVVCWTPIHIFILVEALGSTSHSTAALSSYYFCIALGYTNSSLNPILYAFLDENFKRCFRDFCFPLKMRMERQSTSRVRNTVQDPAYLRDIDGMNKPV

Beta-galactosidase = Beta-galactosidase (Escherichia coli, UniProt Q8VNN2); type: functional
[7] = Fluorescence-based cell-based high throughput dose response assay for inhibitors of the interaction of nucleotide-binding oligomerization domain containing 2 (NOD2) and the receptor-interacting serine-threonine kinase 2 (RIPK2).; type: functional; conditions: Homo sapiens
[8] = biological target: T2, Kappa-type opioid receptor; type: functional; remark: listed apart in the source
[9] = biological target: T3, Rac GTPase-activating protein 1 (Homo sapiens, UniProt Q9H0H5); assay: MgcRacGAP GTPase-activating activity inhibitors, confirmation, biochemical, ADP Hunter fluorescence, primary and confirmatory (AID 624330); type: functional
T3 sequence (Q9H0H5 whole entry): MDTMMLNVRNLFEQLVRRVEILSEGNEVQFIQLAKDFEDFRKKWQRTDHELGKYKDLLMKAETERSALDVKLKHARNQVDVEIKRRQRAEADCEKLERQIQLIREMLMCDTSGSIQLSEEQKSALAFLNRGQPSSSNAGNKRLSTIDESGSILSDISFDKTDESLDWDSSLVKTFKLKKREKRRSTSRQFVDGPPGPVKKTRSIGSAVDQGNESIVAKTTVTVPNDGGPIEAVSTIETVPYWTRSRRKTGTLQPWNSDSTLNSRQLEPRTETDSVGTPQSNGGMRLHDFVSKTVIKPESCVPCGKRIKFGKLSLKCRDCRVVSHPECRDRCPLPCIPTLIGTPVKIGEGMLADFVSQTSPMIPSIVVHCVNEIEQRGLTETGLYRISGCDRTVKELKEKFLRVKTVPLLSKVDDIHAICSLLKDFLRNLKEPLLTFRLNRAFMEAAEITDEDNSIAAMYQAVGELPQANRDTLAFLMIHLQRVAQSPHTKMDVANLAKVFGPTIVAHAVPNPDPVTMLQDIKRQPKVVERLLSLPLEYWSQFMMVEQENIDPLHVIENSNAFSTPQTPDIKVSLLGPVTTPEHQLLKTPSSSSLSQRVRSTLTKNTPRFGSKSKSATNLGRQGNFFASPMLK

[10] = HeLa cell cytotoxicity, dose response, cytotoxicity control for MgcRacGAP inhibitor project (AID 624300); type: functional
[11] = biological target: Neuropeptide Y receptor type 1 (Homo sapiens, UniProt P25929); type: functional;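 further: HEK293 cells with a CNG channel challenged with NPY then isoproterenol; potency as antagonist that reverses NPY suppression of cAMP signal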
Neuropeptide Y receptor type 1, sequence (P25929 whole entry): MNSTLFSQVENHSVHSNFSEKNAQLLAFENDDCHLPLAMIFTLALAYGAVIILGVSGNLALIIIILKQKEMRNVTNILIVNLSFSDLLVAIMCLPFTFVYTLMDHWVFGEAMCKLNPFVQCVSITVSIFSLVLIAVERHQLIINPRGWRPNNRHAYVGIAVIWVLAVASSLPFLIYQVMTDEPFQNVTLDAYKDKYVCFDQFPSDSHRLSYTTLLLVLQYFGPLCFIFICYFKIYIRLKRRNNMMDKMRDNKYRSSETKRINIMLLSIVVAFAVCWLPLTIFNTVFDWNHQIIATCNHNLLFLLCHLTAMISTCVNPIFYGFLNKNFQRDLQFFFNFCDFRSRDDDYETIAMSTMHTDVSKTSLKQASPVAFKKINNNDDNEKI

Beta Lactamase = Beta Lactamase (Pseudomonas aeruginosa, UniProt Q932Y6); assay: beta-lactamase reporter inhibitor potency, dose response, artefact control for NOD2-RIPK2 interaction inhibitor project, BLA reporter cells, FRET fluorescence (AID 651552); type: functional, cell-based
[12] = biological target: T4, Microphthalmia-associated transcription factor (Homo sapiens, UniProt O75030); assay: TRPM1 promoter luciferase signal decrease, dose response, MITF inhibitor project, cell-based, SK-MEL-5, cherry-picked, set 3 (AID 493073); type: functional
T4 sequence (O75030 whole entry): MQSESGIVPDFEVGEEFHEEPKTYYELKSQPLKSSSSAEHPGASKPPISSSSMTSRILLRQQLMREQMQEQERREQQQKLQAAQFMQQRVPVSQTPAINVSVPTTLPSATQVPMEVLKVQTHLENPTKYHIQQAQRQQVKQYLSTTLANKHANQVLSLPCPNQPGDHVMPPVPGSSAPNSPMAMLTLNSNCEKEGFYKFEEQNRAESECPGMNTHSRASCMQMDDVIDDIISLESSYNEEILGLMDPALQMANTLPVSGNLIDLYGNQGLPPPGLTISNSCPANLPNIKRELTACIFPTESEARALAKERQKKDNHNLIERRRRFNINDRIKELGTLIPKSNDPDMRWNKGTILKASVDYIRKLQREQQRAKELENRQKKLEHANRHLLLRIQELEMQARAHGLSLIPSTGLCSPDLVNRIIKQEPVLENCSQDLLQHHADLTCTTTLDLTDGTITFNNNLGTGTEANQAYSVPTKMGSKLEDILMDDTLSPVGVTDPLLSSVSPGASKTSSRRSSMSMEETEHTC

[13] = biological target: Peroxisome proliferator-activated receptor gamma/Nuclear receptor corepressor 2 (Homo sapiens, UniProt P37231+Q9Y618); assay: Counterscreen for NR2E3 inverse agonists: TR-FRET-based biochemical high throughput dose response assay to identify inverse agonists of the interaction between peroxisome proliferator-activated receptor gamma (PPARg) and nuclear receptor co-repressor 2 (NCOR2).; type: functional
Peroxisome proliferator-activated receptor gamma/Nuclear receptor corepressor 2, sequence (P37231 whole entry): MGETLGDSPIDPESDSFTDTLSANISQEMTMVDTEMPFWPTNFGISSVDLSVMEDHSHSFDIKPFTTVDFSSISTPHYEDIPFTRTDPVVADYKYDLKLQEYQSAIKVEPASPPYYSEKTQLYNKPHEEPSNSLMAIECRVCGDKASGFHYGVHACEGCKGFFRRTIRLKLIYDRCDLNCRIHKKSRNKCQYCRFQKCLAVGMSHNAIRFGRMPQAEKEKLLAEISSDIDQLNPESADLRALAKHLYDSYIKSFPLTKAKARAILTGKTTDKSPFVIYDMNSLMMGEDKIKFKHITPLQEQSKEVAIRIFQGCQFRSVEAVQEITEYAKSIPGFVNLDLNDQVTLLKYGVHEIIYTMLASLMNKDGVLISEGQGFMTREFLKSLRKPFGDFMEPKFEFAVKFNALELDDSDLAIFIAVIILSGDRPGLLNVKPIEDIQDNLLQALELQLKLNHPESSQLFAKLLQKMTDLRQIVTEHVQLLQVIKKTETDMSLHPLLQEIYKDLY
Peroxisome proliferator-activated receptor gamma/Nuclear receptor corepressor 2, sequence (Q9Y618 whole entry): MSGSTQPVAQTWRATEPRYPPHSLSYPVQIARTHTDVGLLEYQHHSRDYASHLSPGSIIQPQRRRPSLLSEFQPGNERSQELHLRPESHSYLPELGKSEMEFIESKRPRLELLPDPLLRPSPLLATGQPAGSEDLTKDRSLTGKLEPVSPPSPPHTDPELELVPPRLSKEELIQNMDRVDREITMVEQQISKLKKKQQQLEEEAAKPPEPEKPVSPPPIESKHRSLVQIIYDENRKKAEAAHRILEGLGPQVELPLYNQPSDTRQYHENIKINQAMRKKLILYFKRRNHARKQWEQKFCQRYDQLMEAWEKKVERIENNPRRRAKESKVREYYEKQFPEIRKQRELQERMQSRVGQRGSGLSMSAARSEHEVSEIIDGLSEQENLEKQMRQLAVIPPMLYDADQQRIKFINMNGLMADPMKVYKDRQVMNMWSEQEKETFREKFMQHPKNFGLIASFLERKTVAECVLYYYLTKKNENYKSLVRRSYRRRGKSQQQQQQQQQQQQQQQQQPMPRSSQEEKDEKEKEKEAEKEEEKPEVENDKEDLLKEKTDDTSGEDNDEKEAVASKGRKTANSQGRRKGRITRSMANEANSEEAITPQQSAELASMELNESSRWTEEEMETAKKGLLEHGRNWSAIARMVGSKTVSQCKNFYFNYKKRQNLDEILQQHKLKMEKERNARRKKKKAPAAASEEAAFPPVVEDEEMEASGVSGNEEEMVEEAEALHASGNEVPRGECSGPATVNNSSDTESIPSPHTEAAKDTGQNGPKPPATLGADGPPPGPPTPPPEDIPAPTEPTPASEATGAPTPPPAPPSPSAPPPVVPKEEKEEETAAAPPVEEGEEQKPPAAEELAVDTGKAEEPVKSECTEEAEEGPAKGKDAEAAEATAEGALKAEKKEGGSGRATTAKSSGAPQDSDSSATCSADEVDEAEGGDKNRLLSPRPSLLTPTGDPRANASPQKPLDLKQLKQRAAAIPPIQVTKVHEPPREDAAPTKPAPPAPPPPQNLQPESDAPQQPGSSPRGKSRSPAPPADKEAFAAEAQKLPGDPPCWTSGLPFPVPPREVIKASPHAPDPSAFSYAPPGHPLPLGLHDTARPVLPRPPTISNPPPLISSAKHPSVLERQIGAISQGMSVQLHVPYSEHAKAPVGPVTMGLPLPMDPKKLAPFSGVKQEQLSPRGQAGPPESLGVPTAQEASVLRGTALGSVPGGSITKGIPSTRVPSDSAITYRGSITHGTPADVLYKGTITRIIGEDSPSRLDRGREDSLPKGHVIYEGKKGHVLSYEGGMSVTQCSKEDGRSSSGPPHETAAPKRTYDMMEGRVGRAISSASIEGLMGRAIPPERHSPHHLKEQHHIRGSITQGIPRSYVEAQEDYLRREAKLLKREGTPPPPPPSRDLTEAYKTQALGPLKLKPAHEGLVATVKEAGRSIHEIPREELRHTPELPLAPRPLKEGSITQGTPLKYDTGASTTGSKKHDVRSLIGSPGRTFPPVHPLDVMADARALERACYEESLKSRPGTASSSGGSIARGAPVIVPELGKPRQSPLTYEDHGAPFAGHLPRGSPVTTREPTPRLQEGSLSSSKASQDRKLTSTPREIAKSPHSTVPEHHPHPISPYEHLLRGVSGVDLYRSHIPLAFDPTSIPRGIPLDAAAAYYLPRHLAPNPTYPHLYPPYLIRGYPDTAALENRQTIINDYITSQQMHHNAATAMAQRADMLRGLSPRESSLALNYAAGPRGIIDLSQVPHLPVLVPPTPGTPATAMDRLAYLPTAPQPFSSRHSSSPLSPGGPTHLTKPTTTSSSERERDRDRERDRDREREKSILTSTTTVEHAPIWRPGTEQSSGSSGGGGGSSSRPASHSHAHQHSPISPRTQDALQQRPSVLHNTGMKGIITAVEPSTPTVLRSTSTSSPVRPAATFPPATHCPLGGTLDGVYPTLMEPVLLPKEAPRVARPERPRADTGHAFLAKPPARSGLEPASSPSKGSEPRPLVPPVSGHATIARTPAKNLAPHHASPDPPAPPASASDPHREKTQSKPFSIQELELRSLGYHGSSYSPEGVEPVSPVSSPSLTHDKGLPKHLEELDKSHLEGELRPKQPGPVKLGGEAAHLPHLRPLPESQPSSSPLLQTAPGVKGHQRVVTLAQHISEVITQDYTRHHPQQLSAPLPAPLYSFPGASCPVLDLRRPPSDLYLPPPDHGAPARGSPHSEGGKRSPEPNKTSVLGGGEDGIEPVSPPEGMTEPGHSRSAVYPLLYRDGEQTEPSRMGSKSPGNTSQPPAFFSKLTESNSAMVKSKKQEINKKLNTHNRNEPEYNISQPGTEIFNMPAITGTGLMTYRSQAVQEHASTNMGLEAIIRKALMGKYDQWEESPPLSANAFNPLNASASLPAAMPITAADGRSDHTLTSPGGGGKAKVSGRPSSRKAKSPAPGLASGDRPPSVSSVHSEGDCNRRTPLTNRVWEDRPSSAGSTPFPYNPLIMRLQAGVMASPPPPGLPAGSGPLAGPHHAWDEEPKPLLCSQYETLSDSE

[14] = biological target: Photoreceptor-specific nuclear receptor (Homo sapiens, UniProt Q9Y5X4); assay: NR2E3 inverse agonists, dose response, biochemical, TR-FRET (AID 463256); type: functional
[15] = enhancers of respiration in Yfh1-depleted yeast, dose response, Friedreich's ataxia, plus single-dose screen (AID 1465); type: functional;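 further: yeast depleted of Yfh1p frataxin homolog grown on glycerol needing respiration; WST-1 tetrazolium dye reduction as measure of cellular dehydrogenase metabolic activity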
[16] = M. tuberculosis growth inhibition, HTS (AID 449762); type: functional
[17] = Luminescence Cell-Based Dose Response to Identify Activators of 5'UTR Stem-Loop Driven Prion Protein mRNA Translation in H4-C Neuroglioblastoma Cells. [Related pubchem assays: 1829 (Project Summary), 1814 (Primary HTS)]; type: functional
[18] = Luminescence Cell-Based Dose Response HTS to Identify Activators of Luciferase Translation or Activity in H4 […] Cells. [Related pubchem assays: 1829 (Project Summary), 1814 (Primary HTS)]; type: functional
[19] = biological target: Disintegrin and metalloproteinase domain-containing protein 17 (Homo sapiens, UniProt P78536); assay: ADAM17 protease inhibitors, dose response, counter-screen for ADAM10 exosite inhibitor project, biochemical, quenched FRET substrate (AID 743253)
[20] = Luminescence Cell-Based Dose Response to Identify Activators of Luciferase Translation or Activity in H4-C Neuroglioblastoma Cells. [Related pubchem assays: 1829 (Project Summary), 1814 (Primary HTS)]; type: functional
[21] = Luminescence Cell-Based Dose Confirmation to Identify Activators of 5'UTR Stem-Loop Driven Alpha-Synuclein mRNA Translation in H4 Neuroglioblastoma Cells. [Related pubchem assays: 1829 (Project Summary), 1814 (Primary HTS)]; type: functional
[22] = M. tuberculosis H37Rv growth inhibitors, H37Rv strain (AID 1626); type: functional
[23] = biological target: Sphingosine 1-phosphate receptor 3 (Homo sapiens, UniProt Q99500); assay: Dose response cell-based high throughput screening assay for antagonists of the Sphingosine 1-Phosphate Receptor 3 (S1P3). [Related pubchem assays: 1429, 485 ]; type: functional
Sphingosine 1-phosphate receptor 3, sequence (Q99500 whole entry): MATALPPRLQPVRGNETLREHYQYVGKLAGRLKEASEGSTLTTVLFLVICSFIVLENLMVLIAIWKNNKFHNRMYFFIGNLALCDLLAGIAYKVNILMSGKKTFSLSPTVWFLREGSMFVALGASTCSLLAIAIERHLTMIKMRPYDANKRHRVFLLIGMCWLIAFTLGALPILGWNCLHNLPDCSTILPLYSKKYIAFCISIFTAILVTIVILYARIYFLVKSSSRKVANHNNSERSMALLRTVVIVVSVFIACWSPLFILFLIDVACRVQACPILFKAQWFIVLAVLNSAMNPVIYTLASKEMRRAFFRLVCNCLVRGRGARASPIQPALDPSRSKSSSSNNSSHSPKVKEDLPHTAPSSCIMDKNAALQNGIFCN

[24] = biological target: 5-hydroxytryptamine receptor 1E (Homo sapiens, UniProt P28566); assay: Counterscreen assay for S1P3 antagonists: Dose response cell-based high throughput screening assay to identify antagonists of the 5-Hydroxytryptamine Receptor Subtype 1E (5HT1E). [Related pubchem assays: 1429, 485 ]; type: functional
5-hydroxytryptamine receptor 1E, sequence (P28566 whole entry): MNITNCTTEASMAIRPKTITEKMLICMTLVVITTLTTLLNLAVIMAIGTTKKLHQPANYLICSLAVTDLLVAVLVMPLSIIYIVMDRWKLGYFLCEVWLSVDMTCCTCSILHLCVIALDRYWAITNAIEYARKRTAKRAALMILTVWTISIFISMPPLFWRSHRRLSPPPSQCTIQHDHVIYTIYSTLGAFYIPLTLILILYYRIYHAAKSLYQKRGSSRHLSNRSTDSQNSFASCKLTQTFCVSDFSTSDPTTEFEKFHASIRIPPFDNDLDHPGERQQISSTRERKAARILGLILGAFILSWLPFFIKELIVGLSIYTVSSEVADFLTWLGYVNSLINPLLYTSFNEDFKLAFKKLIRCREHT

In the case of Cc1ccc(/C=C2\SC(=S)N(CCC(=O)NNC(=O)c3ccc(O)cc3)C2=O)cc1, the IC50 [1] is reported as > 111 µM (not active) and the IC50 [2] is reported as 11.6 µM (not active).
For O=C(Nc1ccccc1)c1cc(S(=O)(=O)N2CCSCC2)ccc1Cl, the IC50 [3] was > 100 µM (not active) and the IC50 [4] was > 100 µM (inactive).
With N#CC(C#N)=C1C=CC=CN1/C(=C\c1ccco1)C(=O)c1ccc(Cl)cc1 the IC50 [5] was 3.06 µM (active), the IC50 [6] was 3.64 µM (active) and the EC50 (Beta-galactosidase) was > 31.5 µM (inactive). The IC50 [7] was 1.13 µM (active), the IC50 [8] was 16.5 µM and the IC50 [9] was 121 µM (active). The CC50 [10] was 100 µM (active), the IC50 [11] was 4.08 µM (active) and the IC50 (Beta Lactamase) was 45.9 µM (inactive). For the same compound, the AC50 [12] was 6.85 µM (active).
With CC1(C)Cc2ccccc2-c2nnc(SCC(=O)N3CCc4ccccc43)n21 the IC50 [13] was 7.95 µM (active) and the IC50 [14] was 4.42 µM (active).
With CCCOc1ccc(C2NC(S)=NC(c3ccccc3)=C2C(=O)Nc2ccc(C)cc2)cc1OC (stereo unspecified) the EC50 [15] was > 100 µM (active).
For C(=C\c1ccccc1)/C=N/Nc1nc2ccccc2s1, the IC50 [16] was > 100 µM (active), the EC50 [17] was 0.349 µM (active) and the EC50 [18] was < 0.1 µM (inconclusive). For the same compound, the IC50 [19] was > 69.5 µM (inactive), the EC50 [20] was 0.289 µM (active) and the EC50 [21] was 0.366 µM (active).
In the case of CCOC(=O)c1ccc(NC(=O)Cn2cccc2)cc1, the IC50 [22] is reported as > 100 µM (active).
In the case of Cc1ccccc1C(=O)N1CCN(c2ccc(NC(=O)c3ccc4c(c3)OCO4)cc2)CC1, the IC50 [23] is reported as > 50 µM (not active) and the IC50 [24] is reported as 13.7 µM (not active).

Reference: ChEMBL document CHEMBL1201862, “PubChem BioAssay data set” (2004)
